# Reference: US8557767B2, “Synthetic apolipoprotein E mimicking polypeptides and methods of use” (UAB Research Foundation, priority 2007, dated 2013)
# How the values were obtained:
# [1] = test system: atherogenic apo B-containing lipoproteins in human plasma; conditions: cited from earlier work
# human VLDL = conditions: cited from earlier work
# apo E null mice [2] = experiment: Plasma cholesterol in apo E null mice after i.v. dual-domain peptides; format: in vivo; conditions: iv, n=4
# Protocol: The peptides represented are Ac-hE-18A-NH2, Ac-hE4F-NH2, and Ac-hE-Sc2F-NH2. Peptides Ac-hE-18A-NH2, Ac-hE-4F-NH2 and Ac-hE-Sc18A were administered (i.v.) to apo E null mice (n=4) and plasma cholesterol values were determined at before administration (0 min), 5 min and 2 h after administration.
# As described above, peptides Ac-hE-18A-NH2, Ac-hE-4F-NH2 and Ac-hE-Sc18A were administered (iv) to apo E null mice (n=4) and plasma cholesterol values were determined at before administration (0 min), 5 min and 2 h after administration.
# HepG2 cells = experiment: Apo A-I / prebeta-HDL secretion by HepG2 cells; format: cell-based; conditions: for prebeta-HDL production: equal amount on weight basis (50 ug/ml), first overnight incubation; for prebeta-HDL amount after second and third overnight incubation: fresh cell medium without peptide
# apo E null mice [3] = experiment: Oral feeding of peptides in chow to apo E null mice: plasma cholesterol and aortic sinus lesion
# Protocol: The peptides were mixed in normal chow (1 mg/4 g chow) and fed ad libitum.
# The study was continued for 6 weeks.
# apo E null mice [4] = experiment: Plasma cholesterol in apo E null mice after i.v. 18L-2Y or R18L-2Y; format: in vivo; conditions: 100 ug i.v.
# Description: Dual domain peptide that has LRKLRKRLLR (SEQ ID NO: 1), a sequence from apo E putative receptor binding domain, covalently linked to 18A (SEQ ID NO: 11) enhances uptake and degradation of apo B-containing lipoproteins. […] It has also been previously shown that that if the Lys residues are replaced by Arg, compared to the Lys-containing peptide, the resulting Arg-containing peptide has only 2% of lysis (Aikawa, M., et al. Circulation 106:1390-1396 2002). […] Rearrangement of the nonpolar face of 18L to incorporate aromatic residues at the center of the nonpolar face yields 18L-2. Addition of Tyr (for radiolabeling) yields 18L-2Y (FIG. 15). All of the Lys residues changed to Arg results in R18L2Y (FIG. 15).
Substance,association with atherogenic apo B-containing lipoproteins [1],prebeta-HDL production (HepG2 cells),prebeta-HDL amount after second and third overnight incubation (HepG2 cells),also measured
LRKLRKRLLR,not,–,–,–
Ac-18A-NH2: control peptide; end protected 18A (DWLKAFYDKVAEKLKEAF) (Ac-DWLKAFYDKVAEKLKEAF-NH2) [reference compound],not,–,–,interaction with VLDL (human VLDL): displacement of apo E from VLDL
"Ac-hE-4F-NH2: dual-domain cationic peptide, hE linked to 4F, end protected (Ac-LRKLRKRLLRDWFKAFYDKVAEKFKEAF-NH2)",–,produced preβ-HDL,produced significant amounts,reduction in plasma cholesterol levels at 2 h time point (apo E null mice [2]): large reduction
Ac-GFRRFLGSWARIYRAFVG-NH2 [R18L-2Y],–,–,–,"plasma cholesterol at end of 6 week feeding (apo E null mice [3]; 1 mg per 4 g chow): significantly reduced; atherosclerotic lesion formation, aortic sinus, Oil Red O (apo E null mice [3]; 1 mg per 4 g chow, 6 weeks, four week old female mice): significantly less lesion formation; plasma cholesterol levels at 15 days and 30 days (apo E null mice [3]; 1 mg/4 g of chow per animal per day, n=5): significant decrease; ability to clear plasma cholesterol (apo E null mice [4]): increased ability to clear plasma cholesterol compared to 18L-2Y"
"DWFKAFYDKVAEKFKEAF [4F, reference compound]",–,produced preβ-HDL,levels similar to that of control cell medium,–
